The values that follow come from article PMC8651714 (Scientific Reports, 2021).

Like-named read-outs stand apart in the source and are kept apart here.

One experiment has as its system human MAO-A (hMAO-A). The following applies: cited from earlier work.
The subject of a further experiment is human MAO-B (hMAO-B). The settings on record: cited from earlier work.
In experiment [1] the target is T1, human vasopressin V1A receptor (Homo sapiens, UniProt P37288). The experiment can be described thus: cell-based.
Another experiment concerns rat brain MAO-B. The settings on record: cited from earlier work.
For another experiment, the system named is rat brain MAO-A. The settings on record: cited from earlier work.
The target in experiment [2] is T1, human vasopressin V1A receptor. The settings on record: agonist binding, [3H]AVP, 100 µM, duplicate.
The target in experiment [3] is T2, human dopamine D4 receptor (Homo sapiens, UniProt P21917).
T2 construct: host or cells: CHO
T2 sequence (P21917 1-419): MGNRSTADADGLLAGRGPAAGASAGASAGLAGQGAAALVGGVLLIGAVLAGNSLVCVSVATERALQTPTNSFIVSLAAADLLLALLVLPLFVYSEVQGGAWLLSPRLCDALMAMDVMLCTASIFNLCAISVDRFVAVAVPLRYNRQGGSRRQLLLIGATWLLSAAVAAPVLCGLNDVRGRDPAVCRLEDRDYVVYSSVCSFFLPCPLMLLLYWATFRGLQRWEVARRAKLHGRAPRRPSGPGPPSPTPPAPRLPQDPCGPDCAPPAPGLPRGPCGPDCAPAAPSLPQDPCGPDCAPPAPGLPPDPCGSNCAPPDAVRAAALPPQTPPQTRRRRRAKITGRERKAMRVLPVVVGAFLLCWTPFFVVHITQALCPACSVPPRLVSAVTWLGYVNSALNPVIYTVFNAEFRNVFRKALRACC
The experiment can be described thus: Radioligand binding assay, [3H]methylspiperone, CHO-D4R membranes. The settings on record: duplicate, read-out: % Inhibition of control-specific binding.

Experiment [4] addresses T3, human dopamine D2L receptor (Homo sapiens, UniProt P14416).
T3 construct: host or cells: HEK-293
The experiment can be described thus: Radioligand binding assay, [3H]methylspiperone, HEK-D2LR membranes. The settings on record: duplicate.

Another experiment concerns the target T4, hMAO-B (Homo sapiens, UniProt P27338).
T4 sequence (P27338 1-520): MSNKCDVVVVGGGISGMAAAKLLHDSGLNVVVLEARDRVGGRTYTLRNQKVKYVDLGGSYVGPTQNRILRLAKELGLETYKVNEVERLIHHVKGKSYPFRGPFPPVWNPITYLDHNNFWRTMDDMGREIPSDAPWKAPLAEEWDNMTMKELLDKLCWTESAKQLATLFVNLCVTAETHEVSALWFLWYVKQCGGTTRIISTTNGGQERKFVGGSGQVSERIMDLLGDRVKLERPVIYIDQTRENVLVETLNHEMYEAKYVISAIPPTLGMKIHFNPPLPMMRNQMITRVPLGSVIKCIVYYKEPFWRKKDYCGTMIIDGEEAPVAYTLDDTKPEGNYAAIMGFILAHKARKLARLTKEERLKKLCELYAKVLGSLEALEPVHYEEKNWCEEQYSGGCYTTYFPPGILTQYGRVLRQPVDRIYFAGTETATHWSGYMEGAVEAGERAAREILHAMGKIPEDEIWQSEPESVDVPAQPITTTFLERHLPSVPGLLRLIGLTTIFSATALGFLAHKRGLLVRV
The experiment can be described thus: biochemical. The settings on record: for Ki: inhibition constant from secondary plots.

The target of experiment [5] is T5, human dopamine D3 receptor (Homo sapiens, UniProt P35462). The experiment can be described thus: cell-based.
Experiment [6] has as its target T5, human dopamine D3 receptor. The following applies: 100 µM.
Another experiment deals with MAO from bovine serum. Set-up: method as in PMID 1913999. The settings on record: read-out: Concentration for 50% inhibition of MAO activity; cited from earlier work.
The target of the next experiment is T6, hMAO-A (Homo sapiens, UniProt P21397).
T6 construct: purchased Sigma Aldrich
T6 sequence (P21397 1-527): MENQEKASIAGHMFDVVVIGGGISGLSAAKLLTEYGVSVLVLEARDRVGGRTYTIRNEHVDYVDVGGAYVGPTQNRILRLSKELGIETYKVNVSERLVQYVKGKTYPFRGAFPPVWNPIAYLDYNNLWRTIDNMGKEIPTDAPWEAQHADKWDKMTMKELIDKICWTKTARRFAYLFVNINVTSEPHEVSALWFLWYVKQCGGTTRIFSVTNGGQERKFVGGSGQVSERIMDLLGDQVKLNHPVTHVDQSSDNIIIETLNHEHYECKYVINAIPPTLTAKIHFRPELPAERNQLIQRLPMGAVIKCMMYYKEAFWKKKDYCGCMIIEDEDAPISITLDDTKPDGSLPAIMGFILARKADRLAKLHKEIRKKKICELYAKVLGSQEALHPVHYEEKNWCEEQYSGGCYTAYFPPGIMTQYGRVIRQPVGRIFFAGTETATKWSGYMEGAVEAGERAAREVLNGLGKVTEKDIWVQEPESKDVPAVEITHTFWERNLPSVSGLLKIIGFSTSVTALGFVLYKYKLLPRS
The experiment can be described thus: Recombinant hMAO-A inhibitory assay (luminescent) and enzyme kinetics. It is filed as biochemical.

The target in experiment [7] is human dopamine D1 receptor (Homo sapiens, UniProt P21728). The experiment can be described thus: cell-based.
Where [8] appears, read: ILG isolated from Colvillea racemosa.

Turning to `O=C1C[C@@H](c2ccc(O)cc2)Oc2cc(O)ccc21` [LG, reference compound], the values for the IC50 with human MAO-A (hMAO-A) and with human MAO-B (hMAO-B) were 0.27 ± 0.04 µM and 0.098 µM, respectively.
One may read the EC50 as the concentration giving half of the maximal effect. Higher therefore signals a need for much substance. By inhibition is commonly meant the drop in the measured response relative to a control, in per cent. Broadly, the Ki is a dissociation constant, usually derived from enzyme kinetics or from competition with a known ligand. As to `O=C(/C=C/c1ccc(O)cc1)c1ccc(O)cc1O` [Isoliquiritigenin, 4,2′,4′-Trihydroxychalcone], the half-maximal effective concentration (EC50) in experiment [1] worked out at 78.6 ± 2.7 µM; in experiment [5], 62.3 ± 0.2 µM. Besides, the IC50 in the experiment with rat brain MAO-B (ILG isolated from Sinofranchetia chinensis, rat brain, read-out: rMAO-B IC50) is 47.2 µM; in the experiment on rat brain MAO-A (ILG isolated from Sinofranchetia chinensis, rat brain, read-out: rMAO-A IC50), 13.9 µM; with human MAO-A (hMAO-A) (setting [8]), 22.7 ± 1.84 µM; with human MAO-A (hMAO-A) (earlier report), 41.5 µM; in the experiment on human MAO-B (hMAO-B) (setting [8]) it was 0.51 ± 0.01 µM; in the experiment on human MAO-B (hMAO-B) (earlier report), 21.8 µM. Also, the IC50 was 0.33 ± 0.02 µM at hMAO-B; greater than 200 µM in the experiment with MAO from bovine serum; 0.68 ± 0.03 µM at hMAO-A (recombinant hMAO-A, mean ± standard deviation of triplicate assays); 68.9 ± 0.2 µM in [7]. In addition, in the experiment with rat brain MAO-B (previous study), the rMAO-B inhibition type entry is listed as “mixed inhibition”. Moreover, in the experiment on rat brain MAO-A (previous study), the rMAO-A inhibition type entry was “non-competitive inhibition”. Besides, the “% Inhibition of control-specific binding” value in experiment [2] is recorded as 60.8%; in experiment [4] (100 µM), “no binding affinity”. Moreover, the inhibition at 100 µM in experiment [3] amounted to 44.8%; in [4] (read-out: % Inhibition of control-specific binding), 21.3%. The Ki was found to be 0.094 µM at hMAO-B (hMAO-B Kic), 0.71 ± 0.01 µM at hMAO-B (hMAO-B Kiu) and 0.16 µM on hMAO-A (inhibition constant from secondary plots). For the same molecule, the “% Stimulation (percentage of control agonist response)” value in [6] came out at 92.7 ± 0.5%.
On to `COc1cc(O)ccc1C(=O)/C=C/c1ccc(O)cc1` [3-Deoxysappanchalcone, 2′-methoxy-4′,4″-dihydroxychalcone, reference compound], for which the IC50 with human MAO-A (hMAO-A) is 10.1 µM; in the experiment on human MAO-B (hMAO-B) it was 0.68 µM.
